The results in this text go back to ChEMBL document CHEMBL1122891, “Substituted 5H-dibenz[b,g]-1,4-oxazocines and related amino acids with antiinflammatory activity” (1985).

Common to all, as to type: functional
Assay [1] deals with Rattus norvegicus. The assay is described as follows: Percent reduction in swelling of the left hind paw in rat when 40 mg/kg of dose was injected perorally which was determined in adjuvant arthritis test. The following applies: route oral.
For assay [2], the system named is Rattus norvegicus. Kind of assay: Minimum ulcerogenic dose was evaluated 24 hours after peroral administration; value may range from 100-200.
For assay [3], the species on record is Rattus norvegicus. The assay is described as follows: Activity relative to fenclofenac determined in adjuvant arthritis test.
Assay [4] concerns Rattus norvegicus. Kind of assay: Percent reduction in swelling of the left hind paw in rat when 75 mg/kg of dose was injected perorally which was determined in adjuvant arthritis test. The following applies: route oral.
Assay [5] deals with Rattus norvegicus. Kind of assay: Percent reduction in swelling of the left hind paw in rat determined in adjuvant arthritis test, 50 mg/kg dose perorally. To be noted: route oral.
Assay [6] has as its system Rattus norvegicus. Kind of assay: Minimum ulcerogenic dose was evaluated 24 hours after peroral administration.
Assay [7] concerns Rattus norvegicus. The assay is described as follows: Minimum ulcerogenic dose was evaluated 24 hours after peroral administration; value may range from 12.5-25.
Assay [8] concerns Rattus norvegicus. The assay is described as follows: Percent reduction in swelling of the left hind paw in rat when 10 mg/kg of dose was injected perorally which was determined in adjuvant arthritis test. To be noted: route oral.
For assay [9], the system named is Rattus norvegicus. The assay is described as follows: Percent reduction in swelling of the left hind paw in rat when 20 mg/kg of dose was injected perorally which was determined in adjuvant arthritis test. The following applies: route oral.
The test system of assay [10] is Rattus norvegicus. Kind of assay: Percent reduction in swelling of the left hind paw in rat determined in adjuvant arthritis test, 25 mg/kg dose was perorally. To be noted: route oral.
Assay [11] has as its system Rattus norvegicus. Kind of assay: Minimum ulcerogenic dose was evaluated 24 hours after peroral administration; value may range from 60-120.
In assay [12] the test system is Rattus norvegicus. The assay is described as follows: Minimum ulcerogenic dose was evaluated 24 hours after peroral administration; value may range from 50-100.
Assay [13] has as its system Rattus norvegicus. The assay is described as follows: Percent reduction in swelling of the left hind paw in rat when 25 mg/kg of dose was injected perorally which was determined in adjuvant arthritis test. The following applies: route oral.
In assay [14] the test system is Rattus norvegicus. The assay is described as follows: Percent reduction in swelling of the left hind paw in rat when 100 mg/kg of dose was injected perorally which was determined in adjuvant arthritis test. To be noted: route oral.
Assay [15] relates to Rattus norvegicus. Kind of assay: Minimum ulcerogenic dose was evaluated 24 hours after peroral administration; value may range from 400-800.
Assay [16] deals with Rattus norvegicus. Kind of assay: Percent reduction in swelling of the left hind paw in rat when 2 mg/kg of dose was injected perorally which was determined in adjuvant arthritis test. To be noted: route oral.
Assay [17] has as its system Rattus norvegicus. Kind of assay: Minimum ulcerogenic dose was evaluated 24 hours after peroral administration; value may range from 50-80.
For assay [18], the system named is Rattus norvegicus. The assay is described as follows: Percent reduction in swelling of the left hind paw in rat when 35 mg/kg of dose was injected perorally which was determined in adjuvant arthritis test. To be noted: route oral.

As to `Cc1ccc2c(c1)CCNc1cc(C)cc(Cl)c1O2`, the Reduction in the assay on Rattus norvegicus [1] was determined as 19%.

Regarding `O=C(O)Cc1ccccc1Oc1c(Cl)cccc1[N+](=O)[O-]`, the MUD in the assay with Rattus norvegicus [2] was found to be 100 mg/kg. Further, in the assay listed under Rattus norvegicus [3], the Relative potency came to 2. Besides, in the assay with Rattus norvegicus [4], the Reduction is reported as 45%.

As to `O=C(Cc1ccccc1Oc1c(Cl)cccc1[N+](=O)[O-])OC1OC(=O)c2ccccc21` (stereo not given), in the assay on Rattus norvegicus [5], the Reduction came to 30%. In the assay with Rattus norvegicus [6], this molecule returned an MUD greater than 800 mg/kg. Further, in the assay filed under Rattus norvegicus [3], the Relative potency is 0.7.

Regarding `Nc1cc(Cl)cc(Cl)c1Oc1ccccc1CC(=O)O`, the MUD in the assay with Rattus norvegicus [7] was 12.5 mg/kg. The Reduction with Rattus norvegicus [8] turned out to be 41%. In addition, in the assay listed under Rattus norvegicus [3], the Relative potency is listed as 6.8.

Consider `COc1cc(Cl)cc2c1Oc1ccc(C)cc1CCN2`, for which the Reduction in the assay with Rattus norvegicus [4] is listed as 1%.

As for `Cc1cccc(N(C)C)c1Oc1ccccc1CC(=O)O`, the Reduction with Rattus norvegicus [9] was determined as 38%. The MUD with Rattus norvegicus [2] came out at 100 mg/kg. Besides, the Relative potency in the assay listed under Rattus norvegicus [3] worked out at 2.1.

Regarding `Cc1c(N)c(Oc2ccccc2CC(=O)O)c(Cl)c(C)c1Cl`, the Reduction in the assay with Rattus norvegicus [10] is on record as 4%. The molecule also showed an MUD in the assay on Rattus norvegicus [11] of 60 mg/kg.

`CNc1cc(Cl)cc(Cl)c1Oc1ccccc1CC(=O)OC`: the Reduction in the assay with Rattus norvegicus [5] was found to be 36%. Moreover, the Relative potency in the assay listed under Rattus norvegicus [3] came out at 2.5. In the assay with Rattus norvegicus [12], this molecule registered an MUD of 50 mg/kg.

For `Clc1cc(Cl)c2c(c1)NCCc1ccccc1O2`, in the assay filed under Rattus norvegicus [3], the Relative potency was found to be 2.1. Also, the Reduction with Rattus norvegicus [13] stood at 41%.

In the case of `Cc1cc(Cl)c2c(c1)NCCc1ccccc1O2`, the Reduction with Rattus norvegicus [13] stood at 23%.

As for `CC(=O)N1CCc2ccccc2Oc2c(Cl)cc(Cl)cc21`, the Reduction in the assay on Rattus norvegicus [4] came out at 10%.

On to `O=[N+]([O-])c1cccc(Cl)c1Oc1ccccc1CCO`, for which the Reduction in the assay on Rattus norvegicus [14] was 37%. For the same molecule, the MUD with Rattus norvegicus [12] was found to be 50 mg/kg.

`Cc1cccc(N)c1Oc1ccccc1CC(=O)O` yielded an MUD in the assay with Rattus norvegicus [15] of 400 mg/kg. Moreover, the Relative potency in the assay listed under Rattus norvegicus [3] stood at 1.9. Moreover, the Reduction in the assay with Rattus norvegicus [10] came to 32%.

As for `Nc1c(Cl)c(Cl)cc(Cl)c1Oc1ccccc1CC(=O)O`, in the assay with Rattus norvegicus [8], the Reduction was determined as 37%. For the same molecule, the Relative potency in the assay filed under Rattus norvegicus [3] is given as 11.6. In addition, the MUD in the assay on Rattus norvegicus [12] came to 50 mg/kg.

`CNc1cc(Cl)cc(Cl)c1Oc1ccccc1CC(=O)O`: the Reduction in the assay on Rattus norvegicus [16] turned out to be 22%. Also, in the assay listed under Rattus norvegicus [3], the Relative potency is 13.

Consider `COC(=O)Cc1ccccc1Oc1c(N)cc(Cl)cc1Cl`, for which, in the assay filed under Rattus norvegicus [3], the Relative potency was found to be 7.5. The molecule further displayed an MUD with Rattus norvegicus [17] of 50 mg/kg. The Reduction in the assay on Rattus norvegicus [10] worked out at 38%.

For `Nc1cc(C(F)(F)F)ccc1Oc1ccccc1CC(=O)O`, the Reduction with Rattus norvegicus [14] came to 36%. Further, the MUD with Rattus norvegicus [15] was found to be 400 mg/kg. The Relative potency in the assay listed under Rattus norvegicus [3] was found to be 2.1.

Regarding `Nc1ccccc1Oc1ccccc1CC(=O)O`, the Reduction in the assay with Rattus norvegicus [18] turned out to be 2%.
